Where two headings read alike, the source gives them in different places.
Legend:
NF-κB = NF-κB inflammation assay (PRINCESS NINA Instant Assay, A549-NF-κB-SEAP reporter cells); assay type: cell-based; settings: for EC50: A549-NF-κB-SEAP reporter cells stimulated with 2 ng/ml TNF-α, read-out: Biological activity (EC50, NF-κB inflammation assay)
mouse splenocytes = assay: Cytokine production of mouse splenocytes stimulated with CD3/CD28; assay type: cell-based; settings: 10 μM
human PBMCs = assay: Cytokine production of human PBMCs; assay type: cell-based; settings: for EC50: Homo sapiens, PBMC, 48 h, 48 hours
[1] = test system: bird flu virus H5N1 (strain MB1); assay type: in vivo, mouse; settings: H5N1 infected mice, daily 15 mg/kg i.p. for two days
[2] = test system: Influenza A virus H5N1-strain; assay type: cell-based; settings: 5 μM, infected A549 cells
[3] = test system: Fowl Plaque Virus, H7N7-strain; assay type: cell-based, Influenza A virus; settings: 5 μM, infected A549 cells
A549 cells = assay: Determination of cell viability (MTT staining); assay type: cell-based
Description: Cell lines (e.g. A549) incubated with compounds of the invention were assessed on cell viability by means of MTT staining.

influenza strain H7N7 = assay type: in vivo, mouse
influenza strain H5N1 = assay type: in vivo, mouse
hematological cell lines = assay: In-vitro antitumor activity in human tumor cell lines (monolayer assay, propidium iodide); assay type: cell-based
human lymphocyte = assay: T-lymphocyte proliferation assay (stimulated PBMC, BrdU); assay type: cell-based
mouse T-cell = assay: Mouse T-cell proliferation; assay type: cell-based
influenza virus = assay: Antiviral combination with interferon-α

COc1cc(N2CCC(c3nc(C(=O)Nc4nc5ccc(C(=O)c6ccccc6)cc5[nH]4)cs3)CC2)nc(OC)n1 [Compound 1, N-(6-benzoyl-1H-benzo[d]imidazol-2-yl)-2-(1-(2,6-dimethoxypyrimidin-4-yl)piperidin-4-yl)thiazole-4-carboxamide]
EC50 (NF-κB): < 10 µM

O=C(c1ccccc1)c1ccc2nc(NC(=O)c3csc(C4CCN(c5ncnc6nc[nH]c56)CC4)n3)[nH]c2c1 [Compound 2, 2-(1-(7H-purin-6-yl)piperidin-4-yl)-N-(6-benzoyl-1H-benzo[d]imidazol-2-yl)thiazole-4-carboxamide]
EC50 (NF-κB): < 10 µM

N#Cc1ccnc(N2CCC(c3nc(C(=O)Nc4nc5ccc(C(=O)c6ccccc6)cc5[nH]4)cs3)CC2)c1 [Compound 3, N-(6-benzoyl-1H-benzo[d]imidazol-2-yl)-2-(1-(4-cyanopyridin-2-yl)piperidin-4-yl)thiazole-4-carboxamide]
EC50 (NF-κB): 30 to 100 µM

O=C(c1ccccc1)c1ccc2nc(NC(=O)c3csc(C4CCN(c5ncnc6ccsc56)CC4)n3)[nH]c2c1 [Compound 4, N-(6-benzoyl-1H-benzo[d]imidazol-2-yl)-2-(1-(thieno[3,2-d]pyrimidin-4-yl)piperidin-4-yl)thiazole-4-carboxamide]
EC50 (NF-κB): < 10 µM | IC50 (NF-κB; read-out: NF-κB reporter gene assay IC50): ~0.1 µM | cytokine production, all measured cytokines (mouse splenocytes; after 24 hours): completely inhibited | reduction of secretion of most cytokines (mouse splenocytes; after 48 hours): more than 90 % of the DMSO control | EC50 (human PBMCs; LPS stimulation, read-out: IL-6 secretion EC50): 0.6 µM | EC50 (human PBMCs; LPS stimulation, read-out: TNF-alpha secretion EC50): 12.6 µM | EC50 (human PBMCs; PHA stimulation, read-out: IL-6 secretion EC50): 0.2 µM | EC50 (human PBMCs; PHA stimulation, read-out: INF-gamma secretion EC50): 9 µM | EC50 (human PBMCs; PHA stimulation, read-out: TNF-alpha secretion EC50): 7.9 µM | secretion of cytokines like IL-1beta, IL-6, IL-8, IFN-gamma, and TNF-alpha (human PBMCs; stimulated with CL075): blocked | secretion of cytokines like IL-6 and IL-8 (human PBMCs; stimulated with IL-1beta): blocked | secretion of cytokines like IL-8, IL-1beta, INF-gamma, TNF-alpha, IL-10, and IL-6 (human PBMCs; stimulated with LPS): blocked | secretion of cytokines like IL-6 and IL-8 (human PBMCs; stimulated with ODN1668): blocked | secretion of cytokines like IL-8 and IFN-gamma (human PBMCs; stimulated with ODN2216): blocked | secretion of cytokines like IL-1beta, IL-6, IL-2, IL-8, IL-10, IL-12p70, INF-gamma, and TNF-alpha (human PBMCs; stimulated with PHA): blocked | secretion of cytokines like IL-1beta, IL-6, and IL-8 (human PBMCs; stimulated with TNF-alpha): blocked | expression of H5N1 specific mRNA in the lung [1]: reduced expression | transcription of IL-6 and IP-10 genes in the lung [1]: reduced transcription | reduction of virus titer [2]: 4 log units | reduction of virus titer [3]: 5 log units | cytotoxicity (A549 cells): not cytotoxic | cell viability versus DMSO treated and untreated cells (A549 cells; 5 μM, absence of virus, MTT staining, 96 hours): the same | protection of infected mice (survival) (influenza strain H7N7; LD50 H7N7, 15 mg/kg daily i.p. day 0 to day 8, end day 14, p<0.05): complete protection | protection of infected mice (survival) (influenza strain H7N7; LD50 H7N7, daily i.v. day 0 to day 4, doses equal or higher 5 mg/kg, end day 14, p<0.05): significant protection | protection of infected mice (survival) (influenza strain H5N1; LD50 H5N1, treatment from day 4 to day 10, 7.5 mg/kg b.id. and 15 mg/kg daily i.p., end day 14, p=0.05): significant protection | protection of infected mice (survival) (influenza strain H5N1; LD50 H5N1, two times 7.5 mg/kg daily i.p. day 0 to day 10, end day 14, p<0.05): significant protection | multiple myeloma derived cell lines above average sensitive (hematological cell lines; cell lines derived from multiple myelomas): 4 out of 5 | score of tumor sensitivity (hematological cell lines; panel of hematological cell lines): excellent score of tumor sensitivity | human lymphocyte proliferation (human lymphocyte): inhibits | mouse T-cell proliferation (mouse T-cell): inhibits | synergism in anti-viral efficacy and toxicity antagonism of combination with INFα versus IFNα combination with ribavirin (influenza virus; combination with INFα): stronger synergism | antiviral effects in combination with INF-α (influenza virus; combination with interferon-α): synergistic antiviral effects

O=C(c1ccccc1)c1ccc2nc(NC(=O)c3csc(C4CCN(c5cc(C(F)(F)F)ncn5)CC4)n3)[nH]c2c1 [Compound 5, N-(6-benzoyl-1H-benzo[d]imidazol-2-yl)-2-(1-(6-(trifluoromethyl)pyrimidin-4-yl)piperidin-4-yl)thiazole-4-carboxamide]
EC50 (NF-κB): 10 to 30 µM

COc1cc2c(N3CCC(c4nc(C(=O)Nc5nc6cc(C(=O)c7ccccc7)ccc6[nH]5)cs4)CC3)ncnc2cc1OCCCN1CCN(C)CC1 [Compound 6, N-(5-benzoyl-1H-benzo[d]imidazol-2-yl)-2-(1-(6-methoxy-7-(3-(4-methylpiperazin-1-yl)propoxy)quinazolin-4-yl)piperidin-4-yl)thiazole-4-carboxamide]
EC50 (NF-κB): < 10 µM

O=CN1CCC(c2nc(C(=O)Nc3nc4cc(C(=O)c5ccccc5)ccc4[nH]3)cs2)CC1 [Compound 7, N-(5-benzoyl-1H-benzo[d]imidazol-2-yl)-2-(1-formylpiperidin-4-yl)thiazole-4-carboxamide]
EC50 (NF-κB): < 10 µM

COC(=O)c1cn2ncnc(N3CCC(c4nc(C(=O)Nc5nc6cc(C(=O)c7ccccc7)ccc6[nH]5)cs4)CC3)c2c1C [Compound 8, Methyl 4-(4-(4-(5-benzoyl-1H-benzo[d]imidazol-2-ylcarbamoyl)thiazol-2-yl)piperidin-1-yl)-5-methylpyrrolo[1,2-f][1,2,4]triazine-6-carboxylate]
EC50 (NF-κB): 30 to 100 µM

Cc1cc2nccc(N3CCC(c4nc(C(=O)Nc5nc6cc(C(=O)c7ccccc7)ccc6[nH]5)cs4)CC3)n2n1 [Compound 9, N-(5-benzoyl-1H-benzo[d]imidazol-2-yl)-2-(1-(2-methylpyrazolo[1,5-a]pyrimidin-7-yl)piperidin-4-yl)thiazole-4-carboxamide]
EC50 (NF-κB): < 10 µM

O=C(c1ccccc1)c1ccc2[nH]c(NC(=O)c3csc(C4CCN(c5ccnc6ncnn56)CC4)n3)nc2c1 [Compound 10, 2-(1-([1,2,4]triazolo[1,5-a]pyrimidin-7-yl)piperidin-4-yl)-N-(5-benzoyl-1H-benzo[d]imidazol-2-yl)thiazole-4-carboxamide]
EC50 (NF-κB): < 10 µM

COC(=O)c1nc2nccc(N3CCC(c4nc(C(=O)Nc5nc6cc(C(=O)c7ccccc7)ccc6[nH]5)cs4)CC3)n2n1 [Compound 11, Methyl 7-(4-(4-(5-benzoyl-1H-benzo[d]imidazol-2-ylcarbamoyl)thiazol-2-yl)piperidin-1-yl)-[1,2,4]triazolo[1,5-a]pyrimidine-2-carboxylate]
EC50 (NF-κB): < 10 µM

O=C(c1ccccc1)c1ccc2nc(NC(=O)c3csc(C4CCN(C(=O)Nc5cc(Cl)nc(Cl)c5)CC4)n3)[nH]c2c1 [Compound 12, N-(6-benzoyl-1H-benzo[d]imidazol-2-yl)-2-(1-(2,6-dichloropyridin-4-ylcarbamoyl)piperidin-4-yl)thiazole-4-carboxamide]
EC50 (NF-κB): < 10 µM

COc1nc(OC)nc(N2CCC(c3nc(C(=O)Nc4nc5cc(C(=O)c6ccccc6)ccc5[nH]4)cs3)CC2)n1 [Compound 13, N-(5-benzoyl-1H-benzo[d]imidazol-2-yl)-2-(1-(4,6-dimethoxy-1,3,5-triazin-2-yl)piperidin-4-yl)thiazole-4-carboxamide]
EC50 (NF-κB): < 10 µM

COc1cc2ncnc(N3CCC(c4nc(C(=O)Nc5nc6cc(C(=O)c7ccccc7)ccc6[nH]5)cs4)CC3)c2cc1OC [Compound 14, N-(5-benzoyl-1H-benzo[d]imidazol-2-yl)-2-(1-(6,7-dimethoxyquinazolin-4-yl)piperidin-4-yl)thiazole-4-carboxamide]
EC50 (NF-κB): < 10 µM

O=C(c1ccccc1)c1ccc2[nH]c(NC(=O)c3csc(C4CCN(c5ccncc5[N+](=O)[O-])CC4)n3)nc2c1 [Compound 15, N-(5-benzoyl-1H-benzo[d]imidazol-2-yl)-2-(1-(3-nitropyridin-4-yl)piperidin-4-yl)thiazole-4-carboxamide]
EC50 (NF-κB): < 10 µM

O=C(c1ccccc1)c1ccc2[nH]c(NC(=O)c3csc(C4CCN(C(=O)c5ccccc5OC(F)(F)F)CC4)n3)nc2c1 [Compound 16, N-(5-benzoyl-1H-benzo[d]imidazol-2-yl)-2-(1-(2-(trifluoromethoxy)benzoyl)piperidin-4-yl)thiazole-4-carboxamide]
EC50 (NF-κB): < 10 µM

Cc1cc2nnc(C(=O)N3CCC(c4nc(C(=O)Nc5nc6cc(C(=O)c7ccccc7)ccc6[nH]5)cs4)CC3)c(C)n2n1 [Compound 17, N-(5-benzoyl-1H-benzo[d]imidazol-2-yl)-2-(1-(4,7-dimethylpyrazolo[5,1-c][1,2,4]triazine-3-carbonyl)piperidin-4-yl)thiazole-4-carboxamide]
EC50 (NF-κB): < 10 µM

Reference: patent US20090304632A1, “HETEROCYCLIC NF-kB INHIBITORS” (priority 2007, published 2009)
